In patent US20040077540A1, “Compositions and methods for modulating physiology of epithelial junctional adhesion molecules for enhanced mucosal delivery of therapeutic compounds” (Nastech Pharmaceutical Company Inc., priority 2002, published 2004):
Where two headings read alike, the source gives them in different places. Where a SMILES comes first, the peptide text is derived from it. Where no end group is shown, it is not given here.

Key:
[1] = aqueous solution at physiologic pH; cited from earlier work
[2] = MTT assay, viability of mucosal epithelial tissue; assay type: cell-based; parameters: concentration or dose not given beside the values; settings: human, EpiAirway™ units (mucosal epithelial tissue)
Experimental: MTT is a cell-permeable tetrazolium salt which is reduced by mitochondrial dehydrogenase activity to an insoluble colored formazan by viable cells with intact mitochondrial function or by nonmitochondrial NAD(P)H dehydrogenase activity from cells capable of generating a respiratory burst. […] We have employed a MTT reagent kit prepared by MatTek Corp for their units in order to assess viability.
A. The MTT reagent is supplied as a concentrate and is diluted into a proprietary DMEM-based diluent on the day viability is to be assayed (typically the afternoon of the day in which permeation kinetics and TER were determined in the morning). The final MTT concentration is 1 mg/mL
B. The final MTT solution is added to wells of a 24-well microplate at a volume of 300 μL per well. As has been noted above, this volume is sufficient to contact the membranes of the EpiAirway™ units but imposes no significant positive hydrostatic pressure on the cells.
C. The units are removed from the 24-well plate in which they were placed after TER measurements, and after removing any excess liquid from the exterior surface of the units, they are transferred to the plate containing MTT reagent. The units in the plate are then placed in an incubator at 37° C. in an atmosphere of 5% CO2 in air for 3 hours.
D. At the end of the 3-hour incubation, the units containing viable cells will have turned visibly purple. The insoluble formazan must be extracted from the cells in their units to quantitate the extent of MTT reduction. Extraction of the formazan is accomplished by transferring the units to a 24-well microplate containing 2 mL extractant solution per well, after removing excess liquid from the exterior surface of the units as before. This volume is sufficient to completely cover both the membrane and the apical surface of the units. Extraction is allowed to proceed overnight at room temperature in a light-tight chamber. MTT extractants traditionally contain high concentrations of detergent, and destroy the cells.
E. At the end of the extraction, the fluid from within each unit and the fluid in its surrounding well are combined and transferred to a tube for subsequent aliquotting into a 96-well microplate (200 μL aliquots are optimal) and determination of absorbance at 570 nm on a VMax multiwell microplate spectrophotometer. […] The “blank” for the determination of formazan absorbance is a 200 μL aliquot of extractant to which no unit had been exposed. This absorbance value is assumed to constitute zero viability.
F. Two units from each kit of 24 EpiAirway™ units are left untreated during determination of permeation kinetics and TER. These units are employed as the positive control for 100% cell viability. In all the studies conducted, there was no statistically significant difference in the viability of the cells in these untreated cells compared to viability of cells in control units which had been sham treated for permeation kinetics and on which TER determinations had been performed. The absorbance of all units treated with test formulations is assumed to be linearly proportional to the percent viability of the cells in the units at the time of the incubation with MTT. It should be noted that this assay is carried out typically no sooner than four hours after introduction of the test material to the apical surface, and subsequent to rinsing of the apical surface of the units during TER determination.
The MTT assays were performed using MTT-100, MatTek kits. […] of the MTT solution was added into each well. Tissue inserts were gently rinsed with clean PBS and placed in the MTT solution. The samples were incubated at 37° C. for 3 hours. After incubation the cell culture inserts were then immersed with 2.0 mL of the extractant solution per well to completely cover each insert. The extraction plate was covered and sealed to reduce evaporation. Extraction proceeds overnight at RT in the dark. […]

[3] = system: EpiAirway™ units (mucosal epithelial tissue); assay: LDH assay, cytolysis of EpiAirway units; assay type: cell-based
Source text: While measurement of mitochondrial reductase activity by MTT reduction is a sensitive probe of cell viability, the assay necessarily destroys the cells and therefore can be carried out only at the end of each study. When cells undergo necrotic lysis, their cytotosolic contents are spilled into the surrounding medium, and cytosolic enzymes such as lactate dehydrogenase (LDH) can be detected in this medium. An assay for LDH in the medium can be performed on samples of medium removed at each time point of the two-hour determination of permeation kinetics. […] A. The recommended LDH assay for evaluating cytolysis of the EpiAirway™ units is based on conversion of lactate to pyruvate with generation of NADH from NAD. […] The formazan formed from reduction of INT is soluble, so that the entire assay for LDH activity can be carried out in a homogenous aqueous medium containing lactate, NAD, diaphorase, and INT. B. The assay for LDH activity is carried out on 50 μL aliquots from samples of “supernatant” medium surrounding an EpiAirway™ unit and collected at each time point. These samples were either stored for no longer than 24 h in the refrigerator or were thawed after being frozen within a few hours after collection. […] The aliquots are all transferred to a 96 well microplate. C. […] Thus, within experimental error, these sham-treated units show no cytolysis of the epithelial cells over the time course of the permeation kinetics measurements. D. […] This freeze-thaw cycle effectively lyses the cells and releases their cytosolic contents, including LDH, into the supernatant medium. […] E. To each well containing an aliquot of supernatant medium, a 50 μL aliquot of the LDH assay reagent is added. […] F. The reactions are terminated by addition of a “stop” solution of 1 M acetic acid, and within one hour of addition of the stop solution, the absorbance of the plate is determined at 490 nm. G.

[4] = intraduodenal, rats, with 1% (w/v) saline dispersion of polycarbophil vs aqueous solution without polymer; cited from earlier work
[5] = system: ciliary beating frequency; settings: cited from earlier work
[6] = system: ciliary function in epithelial cell cultures; settings: cited from earlier work
aminopeptidases = settings: cited from earlier work
[7] = formulations comprising the permeabilizing peptide, read-out: MTT assay results (viability)
[8] = formulations comprising the permeabilizing peptide

Row | Molecule | viability [2, 7] [%] | toxic effects on viability of mucosal epithelial tissue, LDH assay [3, 8] | also measured
1 | CCN(CC)/[N+]([O-])=N/O.CCNCC [diethylamine/NO] | – | – | rate (time) of NO release [1]: < 3 min
2 | MTPVNARYEF [NP-28] | > 80 | no significant adverse effects | –
3 | VPVSQKYELG [NP-32] | > 80 | no significant adverse effects | –
4 | VVPEAQKREM [NP-33] | > 80 | no significant adverse effects | –
5 | CC[C@H](C)[C@H](NC(=O)[C@H](CCCNC(=N)N)NC(=O)[C@@H](N)C(C)C)C(=O)N1CCC[C@H]1C(=O)O [NP-A, VRIP] (H-VRIP-OH) | > 80 | no significant toxic effects | –
6 | VKLSCAY [NP-B, VKLSCAY] | – | – | viability [2]: > 80%; toxic effects on viability of mucosal epithelial tissue, LDH assay [3]: no significant toxic effects
7 | TGITFKSVT [NP-C] | – | – | viability [2]: > 80%; toxic effects on viability of mucosal epithelial tissue, LDH assay [3]: no significant toxic effects
8 | DIYSTLLGLP [NP-41] | > 80 | no significant adverse effects | –
9 | YLYHYCVVD [NP-26] | > 80 | no significant toxic effects | –
10 | NIIQDFYNPL [NP-31] | – | – | viability [2]: > 80%; toxic effects on viability of mucosal epithelial tissue, LDH assay [3]: no significant adverse effects
11 | 9-desglycinamide, 8-arginine vasopressin [DGAVP] | – | – | increase of bioavailability [4]: 3-5 fold
12 | VPDSMKFEIG [NP-30] | > 80 | no significant adverse effects | –
13 | YAGDNIVTAQ [NP-17] | – | – | viability [2]: > 80%; toxic effects on viability of mucosal epithelial tissue, LDH assay [3]: no significant adverse effects
14 | CC[C@H](C)[C@H](N)C(=O)N[C@H](C(=O)N[C@@H](C)C(=O)N[C@@H](CO)C(=O)O)[C@@H](C)O [NP-D, ITAS] (H-ITAS-OH) | > 80 | no significant toxic effects | –
15 | VASGQKREMG [NP-29] | – | – | viability [2]: > 80%; toxic effects on viability of mucosal epithelial tissue, LDH assay [3]: no significant adverse effects
16 | GILRDFYSPL [NP-27] | > 80 | no significant adverse effects | –
17 | AATGLYVDQ [NP-24] | > 80 | no significant toxic effects | –
18 | ALCNQFYTP [NP-25] | > 80 | no significant toxic effects | –
19 | CCO [ethanol] | – | – | concentration reducing the in vitro ciliary beating frequency [5]: greater than 2%
20 | NTIIRDFYNP [NP-10] | > 80 | no significant adverse effects | –
21 | GVNPTAQSS [NP-22] | > 80 | no significant toxic effects | –
22 | 2-alkyl-4-hydroxyquinolines [pyo compound] | – | – | concentration producing ciliostasis / inhibiting ciliary motility [6]: 50 µg/mL
23 | CC(C)CC(N)B(O)O (centres unmarked) [boro-leucine] | – | – | effectiveness in enzyme inhibition relative to bestatin (aminopeptidases): more than 100 times; effectiveness in enzyme inhibition relative to puromycin (aminopeptidases): more than 1000 times
24 | NCCN(CCN)/[N+]([O-])=N/O [diethylenetriamine/NO] | – | – | rate (time) of NO release [1]: approximately 20 hours
25 | CC(C)[C@H](NC(=O)[C@@H](N)CO)C(=O)N[C@H](C(=O)N[C@@H](CCCNC(=N)N)C(=O)O)[C@@H](C)O [NP-E, SVTR] (H-SVTR-OH) | > 80 | no significant toxic effects | –
26 | GFSSPRVEW [NP-21] | – | – | viability [2]: > 80%; toxic effects on viability of mucosal epithelial tissue, LDH assay [3]: no significant toxic effects
27 | EDTGTYTCM [NP-8] | – | – | viability [2]: > 80%; toxic effects on viability of mucosal epithelial tissue, LDH assay [3]: no significant toxic effects
28 | GSLYGSQIY [NP-23] | > 80 | no significant toxic effects | –
29 | GFSLGLWMEC [NP-42] | > 80 | no significant adverse effects | –
